# Reference: patent US20260315483A1, “HETEROCYCLIC COMPOUNDS AS TRIGGERING RECEPTOR EXPRESSED ON MYELOID CELLS 2 AGONISTS AND METHODS OF USE” (VIGIL NEUROSCIENCE, INC., priority 2023, published 2026)
# Biological target: T1, human TREM2 (Homo sapiens, UniProt Q9NZC2)
# T1 construct: expressed in transfected cells; host or cells: HEK293T-hTREM2 cells (HEK cell line expressing human TREM2 and DAP12)
# Test: In vitro measurement of TREM2 activity using cellular phosphorylation of spleen tyrosine kinase (Syk), AlphaLisa, HEK293T-hTREM2 cells
# Assay type: cell-based
# Settings: HEK293T cells expressing human TREM2 and DAP12, 45 min at room temperature, Table D
# Experimental: In Vitro Measurement of Triggering Receptor Expressed on Myeloid Cells 2 Activity Using Cellular Phosphorylation of Spleen Tyrosine Kinase (“Syk”) Assays
# Measurement of TREM2 agonist potency was done using a HEK cell line expressing human TREM2 and DAP12 (HEK293T-hTREM2 cells). Binding of small molecules to, and activation of, TREM2 increases the phosphorylation of Syk. The resultant levels of Syk phosphorylation are measured using a commercial AlphaLisa reagent kit. To perform the assay, HEK-hTREM2 cells were plated at 14,000 cells per well in a 384 well plate, in 25 μL of complete growth media and incubated at 37° C., 5% CO2 for 20-24 hours.
# Prior to the assay, test compounds were diluted in the 384 well plates in assay buffer and allowed to equilibrate for 30 minutes. Growth media was removed from cell plates by inversion on blotting paper, and 25 μL of test articles in assay buffer was added to cells. Cells were incubated for 45 minutes at room temperature. After 45 minutes, assay buffer was removed and 10 μL of lysis buffer was added. Plates were shaken for 20 minutes at 350 RPM at room temperature. After complete lysis, AlphaLisa reagents were added to the lysate, and fluourescence intensity was measured using a Perkin Elmer Envision plate reader. Intensities were used to generate a standard curve, and % activation was calculated. Curve fitting was performed using Prism v9 software, log(agonist) vs response—variable slope (four parameters), and EC50s were calculated from the curve fit.
# The results presented in Tables D and D-2 have been generated with the in vitro assay described above. This assay may be used to test any of the compounds described herein to assess and characterize a compound's ability to act as an agonist of TREM2.
# T1 sequence (Q9NZC2 19-230): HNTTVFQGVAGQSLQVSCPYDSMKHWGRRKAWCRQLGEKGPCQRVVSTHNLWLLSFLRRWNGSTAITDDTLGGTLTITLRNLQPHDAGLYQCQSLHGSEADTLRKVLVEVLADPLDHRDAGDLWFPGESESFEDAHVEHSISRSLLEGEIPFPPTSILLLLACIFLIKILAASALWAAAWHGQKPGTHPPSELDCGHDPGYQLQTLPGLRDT
# T1 sequence (O43914 22-113 partner): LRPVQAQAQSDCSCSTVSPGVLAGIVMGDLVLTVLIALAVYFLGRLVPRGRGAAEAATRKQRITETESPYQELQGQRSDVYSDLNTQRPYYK
row,Compound,EC50 [nM]
1,"CN(C)c1nc2nc(C3CCO[C@@H](c4cnn(C5CC5)c4)C3)nc(-c3cc(F)ccc3F)c2s1 (mixture of isomers) [compound 104, 7-(2,5-difluorophenyl)-N,N-dimethyl-5-[rac-(2R)-2-(1-cyclopropylpyrazol-4-yl)tetrahydropyran-4-yl]thiazolo[4,5-d]pyrimidin-2-amine]",50 to 500
2,"CN(C)c1nc2nc([C@@H]3CCO[C@@H](c4cnn(C5CC5)c4)C3)nc(-c3cc(F)c(Cl)cc3F)c2s1 (racemic) [compound 106, 7-(4-chloro-2,5-difluoro-phenyl)-N,N-dimethyl-5-[rac-(2R,4R)-2-(1-cyclopropylpyrazol-4-yl)tetrahydropyran-4-yl]thiazolo[4,5-d]pyrimidin-2-amine]",3000 to 100000
3,"CN(C)c1nc2nc(C3CCO[C@@H](c4cnn(C5CC5)c4)C3)nc(-c3ccc(F)c(F)c3F)c2s1 (stereo in doubt) [compound 107, 5-[(2R,4R)-2-(1-cyclopropylpyrazol-4-yl)tetrahydropyran-4-yl]-N,N-dimethyl-7-(2,3,4-trifluorophenyl)thiazolo[4,5-d]pyrimidin-2-amine]",≤ 50
4,"CN(C)c1nc2nc(C3CCO[C@@H](c4cnn(C5CC5)c4)C3)nc(-c3ccc(F)c(F)c3F)c2s1 (stereo in doubt) [compound 108, 5-[(2R,4S)-2-(1-cyclopropylpyrazol-4-yl)tetrahydropyran-4-yl]-N,N-dimethyl-7-(2,3,4-trifluorophenyl)thiazolo[4,5-d]pyrimidin-2-amine]",50 to 500
5,"CN(C)c1nc2nc([C@H]3CCO[C@@H](c4ccc(=O)n(C)c4)C3)nc(-c3ccc(F)cc3F)c2s1 (stereo in doubt) [compound 119, 5-[(2R,4S)-4-[7-(2,4-difluorophenyl)-2-(dimethylamino)thiazolo[4,5-d]pyrimidin-5-yl]tetrahydropyran-2-yl]-1-methyl-pyridin-2-one]",50 to 500
6,"CN(C)c1nc2nc([C@@H]3CCO[C@H](c4ccc(=O)n(C)c4)C3)nc(-c3ccc(F)cc3F)c2s1 (stereo in doubt) [compound 120, 5-[(2S,4R)-4-[7-(2,4-difluorophenyl)-2-(dimethylamino)thiazolo[4,5-d]pyrimidin-5-yl]tetrahydropyran-2-yl]-1-methyl-pyridin-2-one]",≤ 50
7,"CN(C)c1nc2nc([C@H]3CCO[C@H](c4ccc(=O)n(C)c4)C3)nc(-c3ccc(F)cc3F)c2s1 (stereo in doubt) [compound 121, 5-[(2S,4S)-4-[7-(2,4-difluorophenyl)-2-(dimethylamino)thiazolo[4,5-d]pyrimidin-5-yl]tetrahydropyran-2-yl]-1-methyl-pyridin-2-one]",50 to 500
8,"CN(C)c1nc2nc(N3CCO[C@@H](c4cnn(C5CC5)c4)C3)nc(-c3ccc(F)cc3F)c2s1 [compound 100, 5-[(2S)-2-(1-cyclopropylpyrazol-4-yl)morpholin-4-yl]-7-(2,4-difluorophenyl)-N,N-dimethyl-thiazolo[4,5-d]pyrimidin-2-amine]",≤ 50
9,"CN(C)c1nc2nc(N3CCO[C@H](c4cnn(C5CC5)c4)C3)nc(-c3ccc(F)cc3F)c2s1 [compound 101, 5-[(2R)-2-(1-cyclopropylpyrazol-4-yl)morpholin-4-yl]-7-(2,4-difluorophenyl)-N,N-dimethyl-thiazolo[4,5-d]pyrimidin-2-amine]",50 to 500
10,"C[C@@H]1CN(c2nc(-c3ccc(C(F)F)cc3F)c3sc(N(C)C)nc3n2)C[C@H](c2cnn(C3CC3)c2)O1 [compound 102, 5-[(2S,6R)-2-(1-cyclopropylpyrazol-4-yl)-6-methyl-morpholin-4-yl]-7-[4-(difluoromethyl)-2-fluoro-phenyl]-N,N-dimethyl-thiazolo[4,5-d]pyrimidin-2-amine]",≤ 50
11,"CN(C)c1nc2nc([C@H]3CCO[C@@H](c4cnn(C5CC5)c4)C3)nc(-c3ccc(C(F)F)cc3F)c2s1 [compound 103, 5-[(2R,4S)-2-(1-cyclopropylpyrazol-4-yl)tetrahydropyran-4-yl]-7-[4-(difluoromethyl)-2-fluoro-phenyl]-N,N-dimethyl-thiazolo[4,5-d]pyrimidin-2-amine]",50 to 500
12,"CN(C)c1nc2nc([C@H]3CCO[C@@H](c4cnn(C5CC5)c4)C3)nc(-c3cc(F)c(Cl)cc3F)c2s1 [compound 105, 7-(4-chloro-2,5-difluoro-phenyl)-N,N-dimethyl-5-[(2R,4S)-2-(1-cyclopropylpyrazol-4-yl)tetrahydropyran-4-yl]thiazolo[4,5-d]pyrimidin-2-amine]",≤ 50
13,"C[C@@H]1CN(c2nc(-c3ccc(F)cc3F)c3sc(N4CCC[C@H]4C)nc3n2)C[C@H](c2cnn(C3CC3)c2)O1 [compound 109, (2S,6R)-2-(1-cyclopropyl-1H-pyrazol-4-yl)-4-(7-(2,4-difluorophenyl)-2-((R)-2-methylpyrrolidin-1-yl)thiazolo[4,5-d]pyrimidin-5-yl)-6-methylmorpholine]",≤ 50
14,"Cc1ccc(-c2nc(N3C[C@@H](C)O[C@@H](c4cnn(C5CC5)c4)C3)nc3nc(N(C)C)sc23)c(F)c1 [compound 110, 5-[(2S,6R)-2-(1-cyclopropylpyrazol-4-yl)-6-methyl-morpholin-4-yl]-7-(2-fluoro-4-methyl-phenyl)-N,N-dimethyl-thiazolo[4,5-d]pyrimidin-2-amine]",≤ 50
15,"C[C@@H]1CN(c2cc(-c3ccc(F)cc3F)c3sccc3n2)C[C@H](c2cnn(C3CC3)c2)O1 [compound 111, (2S,6R)-2-(1-cyclopropylpyrazol-4-yl)-4-[7-(2,4-difluorophenyl)thieno[3,2-b]pyridin-5-yl]-6-methyl-morpholine]",500 to 3000
16,"C[C@@H]1CN(c2nc(-c3ccc(F)cc3F)c3sc(N4CCC[C@@H]4C)nc3n2)C[C@H](c2cnn(C3CC3)c2)O1 [compound 112, (2S,6R)-2-(1-cyclopropylpyrazol-4-yl)-4-[7-(2,4-difluorophenyl)-2-[(2S)-2-methylpyrrolidin-1-yl]thiazolo[4,5-d]pyrimidin-5-yl]-6-methyl-morpholine]",≤ 50
17,"CC(C)c1nc2nc(N3C[C@@H](C)O[C@@H](c4cnn(C5CC5)c4)C3)nc(-c3ccc(F)cc3F)c2s1 [compound 113, (2S,6R)-2-(1-cyclopropyl-1H-pyrazol-4-yl)-4-(7-(2,4-difluorophenyl)-2-isopropylthiazolo[4,5-d]pyrimidin-5-yl)-6-methylmorpholine]",≤ 50
18,"CCCc1nc2nc(N3C[C@@H](C)O[C@@H](c4cnn(C5CC5)c4)C3)nc(-c3ccc(F)cc3F)c2s1 [compound 114, (2S,6R)-2-(1-cyclopropyl-1H-pyrazol-4-yl)-4-(7-(2,4-difluorophenyl)-2-propylthiazolo[4,5-d]pyrimidin-5-yl)-6-methylmorpholine]",≤ 50
19,"Cc1cc([C@@H]2C[C@H](c3nc(-c4ccc(F)cc4F)c4sc(N(C)C)nc4n3)CCO2)ccn1 [compound 115, 7-(2,4-difluorophenyl)-N,N-dimethyl-5-[(2S,4R)-2-(2-methyl-4-pyridyl)tetrahydropyran-4-yl]thiazolo[4,5-d]pyrimidin-2-amine]",500 to 3000
20,"Cc1cc([C@H]2C[C@@H](c3nc(-c4ccc(F)cc4F)c4sc(N(C)C)nc4n3)CCO2)ccn1 [compound 116, 7-(2,4-difluorophenyl)-N,N-dimethyl-5-[(2R,4S)-2-(2-methyl-4-pyridyl)tetrahydropyran-4-yl]thiazolo[4,5-d]pyrimidin-2-amine]",≤ 50
21,"C[C@@H]1CN(c2nc(-c3ccc(C(F)(F)F)cc3)c3sc(N(C)C)nc3n2)C[C@H](c2cnn(C3CC3)c2)O1 [compound 117, 5-[(2S,6R)-2-(1-cyclopropyl-pyrazol-4-yl)-6-methyl-morpholin-4-yl]-N,N-dimeth-yl-7-[4-(trifluoromethyl)-phenyl]thiazolo[4,5-d]pyr-imidin-2-amine]",50 to 500
22,"CC(C)Oc1nc2nc(N3C[C@@H](C)O[C@@H](c4cnn(C5CC5)c4)C3)nc(-c3ccc(C(F)(F)F)cc3F)c2s1 [compound 118, (2S,6R)-2-(1-cyclopropylpyrazol-4-yl)-4-[7-[2-fluoro-4-(trifluoromethyl)-phenyl]-2-isopropoxy-thiazolo[4,5-d]pyrimidin-5-yl]-6-methyl-morpholine]",500 to 3000
23,"Cc1cc([C@H]2CN(c3nc(-c4ccc(F)cc4F)c4sc(N(C)C)nc4n3)C[C@@H](C)O2)ccn1 [compound 123, 7-(2,4-difluorophenyl)-N,N-dimethyl-5-[(2R,6S)-2-methyl-6-(2-methyl-4-pyridyl)morpholin-4-yl]thiazolo[4,5-d]pyrimidin-2-amine]",≤ 50

# Same assay, conditions: HEK293T cells expressing human TREM2 and DAP12, 45 min at room temperature, Table D-2
row,Compound,EC50 [nM]
1,"C[C@@H]1CN(c2cc3c(c(C4CCC(C(F)(F)F)CC4)n2)CN(C)C3=O)C[C@H](c2cnn(C3CC3)c2)O1 (mixture of isomers) [compound 227, 6-[(2S,6R)-2-(1-cyclopropylpyrazol-4-yl)-6-methyl-morpholin-4-yl]-2-methyl-4-[4-(trifluoromethyl)cyclohexyl]-3H-pyrrolo[3,4-c]pyridin-1-one]",50 to 500
